# Measurements taken from ChEMBL document CHEMBL6109124, “Identification of effective anti-osteosarcoma agents via screening of an in-house NQO1-targeted compound library” (Bioorg Med Chem, 2025).
# The source made the active and inactive calls. The rule behind the calls is not given here.
# Tests used:
# HOS-TE85 [1] = assay: Induction of apoptosis in human MNNG cells assessed as late apoptotic cells at 2.5 uM measured after 48 hrs by Alexa Fluor 488 Annexin V/propidium iodide staining based flow cytometry (reference value: 0.51%); assay type: functional
# HOS-TE85 [2] = assay: Cell cycle arrest in human MNNG cells assessed as accumulation of cells at G0/G1 phase at 1 uM measured after 24 hrs by propidium iodide staining based flow cytometry (reference value: 51.4%); assay type: functional
# HOS-TE85 [3] = assay: Cell cycle arrest in human MNNG cells assessed as accumulation of cells at G2/M phase at 5 uM measured after 24 hrs by propidium iodide staining based flow cytometry (reference value: 39.4%); assay type: functional
# HOS-TE85 [4] = assay: Cytotoxicity against human MNNG cells assessed as cell growth inhibition measured after 72 hrs by MTT assay; assay type: functional, cell-based; settings: HOS-TE85, 72 h
# HOS-TE85 [5] = assay: Induction of apoptosis in human MNNG cells assessed as necrotic cells at 5 uM measured after 48 hrs by Alexa Fluor 488 Annexin V/propidium iodide staining based flow cytometry (reference value: 0.04%); assay type: functional
# HOS-TE85 [6] = assay: Cell cycle arrest in human MNNG cells assessed as accumulation of cells at G0/G1 phase at 2.5 uM measured after 24 hrs by propidium iodide staining based flow cytometry (reference value: 51.4%); assay type: functional
# HOS-TE85 [7] = assay: Induction of apoptosis in human MNNG cells assessed as necrotic cells at 10 uM measured after 48 hrs by Alexa Fluor 488 Annexin V/propidium iodide staining based flow cytometry (reference value: 0.04%); assay type: functional
# HOS-TE85 [8] = assay: Antitumor activity against iv dosed human MNNG cells xenografted in Balb/c mouse assessed as reduction in tumor cell proliferation administered every 2 days for 3 weeks and measured post last dose by Ki-67 staining based assay; assay type: functional, organism-based; settings: dose 15-45 mg/kg, time 21.0 day
# HOS-TE85 [9] = assay: Induction of apoptosis in human MNNG cells assessed as late apoptotic cells at 1 uM measured after 48 hrs by Alexa Fluor 488 Annexin V/propidium iodide staining based flow cytometry (reference value: 0.51%); assay type: functional
# HOS-TE85 [10] = assay: Induction of reactive oxygen species generation in human MNNG cells at 5 to 10 uM measured after 3 hrs in presence of dicoumarol by DCFH-DA probe based fluorescence assay; assay type: functional, cell-based; settings: dose 5-10 µM
# HOS-TE85 [11] = assay: Antitumor activity against iv dosed human MNNG cells xenografted in Balb/c mouse assessed as increase in apoptotic cells administered every 2 days for 3 weeks and measured post last dose by TUNEL staining based assay; assay type: functional, organism-based; settings: dose 15-45 mg/kg, time 21.0 day
# HOS-TE85 [12] = assay: Induction of apoptosis in human MNNG cells assessed as necrotic cells at 2.5 uM measured after 48 hrs by Alexa Fluor 488 Annexin V/propidium iodide staining based flow cytometry (reference value: 0.04%); assay type: functional
# HOS-TE85 [13] = assay: Induction of apoptosis in human MNNG cells assessed as late apoptotic cells at 5 uM measured after 48 hrs by Alexa Fluor 488 Annexin V/propidium iodide staining based flow cytometry (reference value: 0.51%); assay type: functional
# HOS-TE85 [14] = assay: Induction of apoptosis in human MNNG cells assessed as viable cells at 5 uM measured after 48 hrs by Alexa Fluor 488 Annexin V/propidium iodide staining based flow cytometry (reference value: 98.8%); assay type: functional; settings: read-out: Activity
# HOS-TE85 [15] = assay: Induction of apoptosis in human MNNG cells assessed as viable cells at 1 uM measured after 48 hrs by Alexa Fluor 488 Annexin V/propidium iodide staining based flow cytometry (reference value: 98.8%); assay type: functional; settings: read-out: Activity
# HOS-TE85 [16] = assay: Induction of apoptosis in human MNNG cells assessed as early apoptotic cells at 10 uM measured after 48 hrs by Alexa Fluor 488 Annexin V/propidium iodide staining based flow cytometry (reference value: 0.69%); assay type: functional
# HOS-TE85 [17] = assay: Induction of apoptosis in human MNNG cells assessed as late apoptotic cells at 10 uM measured after 48 hrs by Alexa Fluor 488 Annexin V/propidium iodide staining based flow cytometry (reference value: 0.51%); assay type: functional
# HOS-TE85 [18] = assay: Cytotoxicity against human MNNG cells assessed as cell growth inhibition at 1 uM measured after 72 hrs by MTT assay relative to control; assay type: functional; settings: read-out: GI
# HOS-TE85 [19] = assay: Cell cycle arrest in human MNNG cells assessed as accumulation of cells at S phase at 5 uM measured after 24 hrs by propidium iodide staining based flow cytometry (reference value: 39.4%); assay type: functional
# [20] = Toxicity in human MNNG cell xenografted Balb/c mouse assessed as effect on lung at 15 to 45 mg/kg, iv administered every 2 days for 3 weeks and measured post last dose by H and E staining based microscopy; assay type: organism-based; settings: in vivo, 504 h, dose 15-45 mg/kg, time 21 day
# HOS-TE85 [21] = assay: Cell cycle arrest in human MNNG cells assessed as accumulation of cells at G0/G1 phase at 5 uM measured after 24 hrs by propidium iodide staining based flow cytometry (reference value: 51.4%); assay type: functional
# [22] = Toxicity in human MNNG cell xenografted Balb/c mouse assessed as reduction in AST level at 15 to 45 mg/kg, iv administered every 2 days for 3 weeks and measured post last dose; assay type: organism-based; settings: in vivo, 504 h, dose 15-45 mg/kg, time 21 day
# HOS-TE85 [23] = assay: Antitumor activity against human MNNG cells xenografted in Balb/c mouse assessed as tumor growth inhibition at 45 mg/kg, iv administered every 2 days for 3 weeks and measured daily during compound dosing relative to control; assay type: functional; settings: HOS-TE85, 504 h, time 21 day, read-out: TGI
# HOS-TE85 [24] = assay: Induction of apoptosis in human MNNG cells assessed as early apoptotic cells at 5 uM measured after 48 hrs by Alexa Fluor 488 Annexin V/propidium iodide staining based flow cytometry (reference value: 0.69%); assay type: functional
# HOS-TE85 [25] = assay: Cell cycle arrest in human MNNG cells assessed as accumulation of cells at G2/M phase at 2.5 uM measured after 24 hrs by propidium iodide staining based flow cytometry (reference value: 39.4%); assay type: functional
smiles,measurement,setting,value
Cc1cc2c(cc1C)-c1oc(CN3CCOCC3)c(C)c1C(=O)C2=O,Activity,HOS-TE85 [1],15.2%
same,Activity,HOS-TE85 [2],49.7%
same,Activity,HOS-TE85 [3],6.3%
same,IC50,HOS-TE85 [4],1.54 µM
same,Activity,HOS-TE85 [5],0.08%
same,Activity,HOS-TE85 [6],53%
same,Activity,HOS-TE85 [7],0.42%
same,Activity,HOS-TE85 [8],Active
same,Activity,HOS-TE85 [9],6.97%
same,Activity,HOS-TE85 [10],inactive
same,Activity,HOS-TE85 [11],Dose-dependent-effect
same,Activity,HOS-TE85 [12],0.55%
same,Activity,HOS-TE85 [13],12.8%
same,viability at 5 µM,HOS-TE85 [14],69%
same,viability at 1 µM,HOS-TE85 [15],89.3%
same,Activity,HOS-TE85 [16],23.1%
same,Activity,HOS-TE85 [17],17.7%
same,inhibition of growth at 1 µM,HOS-TE85 [18],38.2%
same,Activity,HOS-TE85 [19],37.8%
same,Activity,[20],Non-toxic
same,Activity,HOS-TE85 [21],55.9%
same,Activity,[22],Toxic
same,inhibition in vivo at 45 mg/kg,HOS-TE85 [23],73.6%
same,Activity,HOS-TE85 [24],18.1%
same,Activity,HOS-TE85 [25],9.2%
